Assay results from patent publication US8138168B1 (Takeda Pharmaceutical Company Limited, priority 2007, dated 2012).
Read-outs that look alike come from different tables or passages of the source.

Target: T1, Recombinant human renin (Homo sapiens, UniProt P00797)
T1 construct: isolate the active form (residues 67-406); made in house; host or cells: FreeStyle 293-F cells (transient expression of pcDNA3.1(+)/hREN)
T1 sequence (P00797 67-406): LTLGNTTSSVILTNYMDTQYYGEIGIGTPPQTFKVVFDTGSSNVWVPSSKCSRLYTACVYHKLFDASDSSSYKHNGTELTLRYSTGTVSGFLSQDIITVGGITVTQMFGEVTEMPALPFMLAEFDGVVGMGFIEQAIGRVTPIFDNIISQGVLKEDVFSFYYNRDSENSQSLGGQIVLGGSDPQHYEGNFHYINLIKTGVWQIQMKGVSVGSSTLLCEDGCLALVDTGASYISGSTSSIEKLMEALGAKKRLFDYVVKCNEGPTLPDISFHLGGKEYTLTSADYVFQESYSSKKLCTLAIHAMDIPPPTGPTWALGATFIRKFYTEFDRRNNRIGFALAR
Assay: In vitro enzymatic activity assay of renin inhibitors (fluorogenic peptide substrate)
Type: biochemical
Procedure, shortened: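 Enzyme: recombinant human renin, 3 nM final, 10 min compound pre-incubation at 37 °C; buffer 50 mM Hepes pH 7.4 with 0.1 mg/mL BSA or extra 2% BSA; 5% DMSO.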

[1] = read-out: IC50 of Exemplified Compounds Against Renin

Structure (SMILES) | IC50 [1] | IC50
COCCCn1c([C@@H]2CCCN(C(=O)[C@@H]3CN(S(=O)(=O)c4cccc(-c5csc(C)n5)c4)C[C@H]3N)C2)nc2ccccc21 [Compound 364, ((3R,4S)-4-amino-1-(3-(2-methylthiazol-4-yl)phenylsulfonyl)pyrrolidin-3-yl)((R)-3-(1-(3-methoxypropyl)-1H-benzo[d]imidazol-2-yl)piperidin-1-yl)methanone] | 100 to 1000 nM | 
COCCCn1c([C@@H]2CCCN(C(=O)[C@@H]3CN(S(=O)(=O)c4c(C)cccc4Cl)C[C@H]3N)C2)nc2ccccc21 [Compound 359, ((3R,4S)-4-amino-1-(2-chloro-6-methylphenylsulfonyl)pyrrolidin-3-yl)((R)-3-(1-(3-methoxypropyl)-1H-benzo[d]imidazol-2-yl)piperidin-1-yl)methanone] | 100 to 1000 nM | 
N[C@@H](CC(=O)N1CCCC(c2nc3ccccc3[nH]2)C1)c1cccc(Cl)c1Cl (stereo partly drawn) [Compound 37, (3S)-1-(3-(1H-benzo[d]imidazol-2-yl)piperidin-1-yl)-3-amino-3-(2,3-dichlorophenyl)propan-1-one] | > 1000 nM | 
COCCCn1c([C@@H]2CCCN(C(=O)[C@@H]3CN(S(=O)(=O)c4ccc([N+](=O)[O-])cc4OC)C[C@H]3N)C2)nc2ccccc21 [Compound 411, ((3R,4S)-4-amino-1-(2-methoxy-4-nitrophenylsulfonyl)pyrrolidin-3-yl)((R)-3-(1-(3-methoxypropyl)-1H-benzo[d]imidazol-2-yl)piperidin-1-yl)methanone] | > 1000 nM | 
S=C(Nc1cccc2nsnc12)N1CCCC(c2nc3ccccc3[nH]2)C1 (stereo not drawn) [Compound 18, N-(benzo[c][1,2,5]thiadiazol-4-yl)-3-(1H-benzo[d]imidazol-2-yl)piperidine-1-carboxthioamide] | > 1000 nM | 
COCCCn1c([C@@H]2CCCN(C(=O)[C@@H]3CN(C(=O)N4CCOCC4)C[C@H]3N)C2)nc2ccccc21 [Compound 423, ((3R,4S)-4-amino-1-(morpholine-4-carbonyl)pyrrolidin-3-yl)((R)-3-(1-(3-methoxypropyl)-1H-benzo[d]imidazol-2-yl)piperidin-1-yl)methanone] | > 1000 nM | 
COCCCn1c([C@@H]2CCCN(C(=O)[C@@H]3CN(S(=O)(=O)c4ccccc4Cl)C[C@H]3N)C2)nc2ccccc21 [Compound 346, ((3R,4S)-4-amino-1-(2-chlorophenylsulfonyl)pyrrolidin-3-yl)((R)-3-(1-(3-methoxypropyl)-1H-benzo[d]imidazol-2-yl)piperidin-1-yl)methanone] | 100 to 1000 nM | 
COCCCn1c([C@@H]2CCCN(C(=O)[C@@H]3CN(C(=O)Oc4ccc(Cl)cc4)C[C@H]3N)C2)nc2ccccc21 [Compound 407, (3S,4R)-4-chlorophenyl 3-amino-4-((R)-3-(1-(3-methoxypropyl)-1H-benzo[d]imidazol-2-yl)piperidine-1-carbonyl)pyrrolidine-1-carboxylate] |  | > 1000 nM
N[C@H](CCc1ccccc1)CC(=O)N1CCCC(c2nc3ccccc3[nH]2)C1 (stereo partly drawn) [Compound 32, (3R)-1-(3-(1H-benzo[d]imidazol-2-yl)piperidin-1-yl)-3-amino-5-phenylpentan-1-one] | > 1000 nM | 
Cc1ccccc1C[C@@H](N)CC(=O)N1CCCC(c2nc3ccccc3[nH]2)C1 (stereo partly drawn) [Compound 42, (3R)-1-(3-(1H-benzo[d]imidazol-2-yl)piperidin-1-yl)-3-amino-4-o-tolylbutan-1-one] | > 1000 nM | 
NC1(C(=O)N2CCCC(c3nc4ccccc4[nH]3)C2)CCC1 (stereo not drawn) [Compound 59, (3-(1H-benzo[d]imidazol-2-yl)piperidin-1-yl)(1-aminocyclobutyl)methanone] | > 1000 nM | 

Further lines, with some results ahead:

IC50 [1] | Structure (SMILES) | IC50
< 100 nM | COCCCn1c([C@@H]2CCCN(C(=O)C[C@H](N)CNC(=O)c3ccc(-c4cccs4)cc3)C2)nc2ccccc21 [Compound 259, N-((S)-2-amino-4-((R)-3-(1-(3-methoxypropyl)-1H-benzo[d]imidazol-2-yl)piperidin-1-yl)-4-oxobutyl)-4-(thiophen-2-yl)benzamide] | 
< 100 nM | COCCCn1c([C@@H]2CCCN(C(=O)C[C@H](N)Cc3ccc(-c4ccc5oc(N)nc5c4)cc3)C2)nc2c(F)cccc21 [Compound 463, (R)-3-amino-4-(4-(2-aminobenzo[d]oxazol-5-yl)phenyl)-1-((R)-3-(4-fluoro-1-(3-methoxypropyl)-1H-benzo[d]imidazol-2-yl)piperidin-1-yl)butan-1-one] | 
100 to 1000 nM | CNC(=O)CCn1c([C@@H]2CCCN(C(=O)C[C@H](N)Cc3ccc(-c4ccc5c(c4)CCO5)cc3)C2)nc2c(C)cccc21 [Compound 501, 3-(2-((R)-1-((R)-3-amino-4-(4-(2,3-dihydrobenzofuran-5-yl)phenyl)butanoyl)piperidin-3-yl)-4-methyl-1H-benzo[d]imidazol-1-yl)-N-methylpropanamide] | 
100 to 1000 nM | COCCCn1c([C@@H]2CCCN(C(=O)C[C@H](N)CNC(=O)c3ccc(OC)cc3)C2)nc2ccccc21 [Compound 280, N-((S)-2-amino-4-((R)-3-(1-(3-methoxypropyl)-1H-benzo[d]imidazol-2-yl)piperidin-1-yl)-4-oxobutyl)-4-methoxybenzamide] | 
< 100 nM | COCCCn1c([C@@H]2CCCN(C(=O)C[C@H](N)Cc3ccc(-c4cn(C)c(=O)n(C)c4=O)cc3)C2)nc2ccccc21 [Compound 205, 5-(4-((R)-2-amino-4-((R)-3-(1-(3-methoxypropyl)-1H-benzo[d]imidazol-2-yl)piperidin-1-yl)-4-oxobutyl)phenyl)-1,3-dimethylpyrimidine-2,4(1H,3H)-dione] | 
< 100 nM | COCCCn1c([C@@H]2CCCN(C(=O)C[C@H](N)Cc3ccc(-c4ccc(C(=O)N5CCNC(=O)C5)cc4)cc3)C2)nc2ccccc21 [Compound 189, 4-(4′-((R)-2-amino-4-((R)-3-(1-(3-methoxypropyl)-1H-benzo[d]imidazol-2-yl)piperidin-1-yl)-4-oxobutyl)biphenylcarbonyl)piperazin-2-one] | 
100 to 1000 nM | COCCCn1c([C@@H]2CCCN(C(=O)C[C@H](N)Cc3ccc(-c4ccc(O)nc4)cc3)C2)nc2c(C)ccnc21 [Compound 504, (R)-3-amino-4-(4-(6-hydroxypyridin-3-yl)phenyl)-1-((R)-3-(3-(3-methoxypropyl)-7-methyl-3H-imidazo[4,5-b]pyridin-2-yl)piperidin-1-yl)butan-1-one] | 
< 100 nM | COCCCn1c([C@@H]2CCCN(C(=O)C[C@H](N)Cc3ccc(-c4ccc(C(=O)NCCOC)nc4)cc3)C2)nc2ccccc21 [Compound 195, 5-(4-((R)-2-amino-4-((R)-3-(1-(3-methoxypropyl)-1H-benzo[d]imidazol-2-yl)piperidin-yl)-4-oxobutyl)phenyl)-N-(2-methoxyethyl)picolinamide] | 
< 100 nM | COCCCn1c([C@@H]2CCCN(C(=O)C[C@H](N)Cc3ccc(-c4cnccc4OC)cc3)C2)nc2ccccc21 [Compound 162, (R)-3-Amino-1-((R)-3-(1-(3-methoxypropyl)-1H-benzo[d]imidazol-2-yl)piperidin-1-yl)-4-(4-(4-methoxypyridin-3-yl)phenyl)butan-1-one] | 
> 1000 nM | COCCCn1c([C@@H]2CCCN(C(=O)C[C@H](N)CNC(=O)NC3CCCC3)C2)nc2ccccc21 [Compound 332, 1-((S)-2-amino-4-((R)-3-(1-(3-methoxypropyl)-1H-benzo[d]imidazol-2-yl)piperidin-1-yl)-4-oxobutyl)-3-cyclopentylurea] | 
< 100 nM | COCCCn1c([C@@H]2CCCN(C(=O)C[C@H](N)Cc3ccc(-c4ccc(C(=O)NCC(C)(C)O)cc4)cc3)C2)nc2ccccc21 [Compound 188, 4′-((R)-2-amino-4-((R)-3-(1-(3-methoxypropyl)-1H-benzo[d]imidazol-2-yl)piperidin-1-yl)-4-oxobutyl)-N-(2-hydroxy-2-methylpropyl)biphenyl-4-carboxamide] | 
< 100 nM | COCCCn1c([C@@H]2CCCN(C(=O)C[C@H](N)Cc3ccc(-c4cccnc4Cl)cc3)C2)nc2ccccc21 [Compound 167, (R)-3-amino-4-(4-(2-chloropyridin-3-yl)phenyl)-1-((R)-3-(1-(3-methoxypropyl)-1H-benzo[d]imidazol-2-yl)piperidin-1-yl)butan-1-one] | 
> 1000 nM | COCCCn1c([C@@H]2CCCN(C(=O)C[C@H](N)CNC(=O)C(C)C)C2)nc2ccccc21 [Compound 333, N-((S)-2-amino-4-((R)-3-(1-(3-methoxypropyl)-1H-benzo[d]imidazol-2-yl)piperidin-1-yl)-4-oxobutyl)isobutyramide] | 
< 100 nM | COCCCn1c([C@@H]2CCCN(C(=O)C[C@H](N)Cc3ccc(-c4ccco4)cc3)C2)nc2ccccc21 [Compound 146, (R)-3-Amino-4-(4-(furan-2-yl)phenyl)-1-((R)-3-(1-(3-methoxypropyl)-1H-benzo[d]imidazol-2-yl)piperidin-1-yl)butan-1-one] | 
< 100 nM | COCCCn1c([C@@H]2CCCN(C(=O)C[C@H](N)Cc3ccc(-c4ccccc4)cc3)C2)nc2cccc(Cl)c21 [Compound 98, (R)-3-amino-4-(biphenyl-4-yl)-1-((R)-3-(7-chloro-1-(3-methoxypropyl)-1H-benzo[d]imidazol-2-yl)piperidin-1-yl)butan-1-one] | 
100 to 1000 nM | COCCCn1c([C@@H]2CCCN(C(=O)C[C@H](N)CNC(=O)c3ccc(Oc4ccccc4)cc3)C2)nc2ccccc21 [Compound 278, N-((S)-2-amino-4-((R)-3-(1-(3-methoxypropyl)-1H-benzo[d]imidazol-2-yl)piperidin-1-yl)-4-oxobutyl)-4-phenoxybenzamide] | 
